# Values of other authors, collected in patent publication US11103501B2, “Dry powder formulation of azole derivative for inhalation” (priority 2011, dated 2021).
smiles,measurement,setting,value
CCC(C)n1ncn(-c2ccc(N3CCN(c4ccc(OCC5COC(Cn6cncn6)(c6ccc(Cl)cc6Cl)O5)cc4)CC3)cc2)c1=O (centres unmarked) [itraconazole],water solubility,,< 1 µg/mL
same,solubility,pII 7,< 1 µg/mL
